Measured values as given in US9725445B2, “Cycloalkyl nitrile pyrazolo pyridones as Janus kinase inhibitors” (Merck Sharp & Dohme Corp., priority 2013, dated 2017).

What was measured:
JAK1 = JAK1 (Homo sapiens (Human), UniProt P23458); assay: Jak biochemical HTRF assay, JAK1; conditions: HTRF biochemical assay, recombinant GST-tagged catalytic domain; read-out: JAK1 IC50
JAK2 = JAK2 (Homo sapiens (Human), UniProt O60674); assay: Jak biochemical HTRF assay, JAK2; conditions: HTRF biochemical assay, recombinant GST-tagged catalytic domain; read-out: JAK2 IC50
JAK2, sequence (O60674 849-1124): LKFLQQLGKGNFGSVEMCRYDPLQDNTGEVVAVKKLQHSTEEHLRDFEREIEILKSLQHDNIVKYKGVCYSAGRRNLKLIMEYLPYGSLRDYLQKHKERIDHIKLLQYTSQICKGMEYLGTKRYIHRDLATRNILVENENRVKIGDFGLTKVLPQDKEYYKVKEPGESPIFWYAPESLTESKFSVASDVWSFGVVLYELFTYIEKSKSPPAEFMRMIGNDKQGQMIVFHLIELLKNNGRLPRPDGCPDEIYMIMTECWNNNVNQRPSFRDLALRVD

JAK1, sequence (P23458 875-1153): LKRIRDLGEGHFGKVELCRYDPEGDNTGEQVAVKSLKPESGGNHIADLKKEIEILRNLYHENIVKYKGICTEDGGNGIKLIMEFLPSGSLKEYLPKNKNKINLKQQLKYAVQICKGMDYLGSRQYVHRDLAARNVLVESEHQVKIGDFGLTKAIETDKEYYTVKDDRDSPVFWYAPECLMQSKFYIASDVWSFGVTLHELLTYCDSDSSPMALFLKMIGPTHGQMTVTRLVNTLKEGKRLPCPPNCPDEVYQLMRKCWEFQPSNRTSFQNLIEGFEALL

Structure (SMILES) | IC50 (JAK1) | IC50 (JAK2)
C[C@H](NC1CCC(n2nc(Nc3ccc(Cl)cc3)c3c(=O)[nH]ccc32)C(C#N)C1)C1CC1 (stereo in doubt) [Example 4-1, (1R,2R,5S)-2-(3-((4-Chlorophenyl)amino)-4-oxo-4,5-dihydro-1H-pyrazolo[4,3-c]pyridin-1-yl)-5-(((S)-1-cyclopropylethyl)amino)cyclohexanecarbonitrile] | 5.3 nM | 122 nM
Cc1cc(Nc2nn([C@H]3CCCC[C@@H]3C#N)c3cc[nH]c(=O)c23)ccc1C(=O)N(C)C [Example 3-67, 4-({1-[(1S,2S)-2-cyanocyclohexyl]-4-oxo-4,5-dihydro-1H-pyrazolo[4,3-c]pyridin-3-yl}amino)-N,N,2-trimethylbenzamide] | 0.34 nM | 0.43 nM
Cc1cc(Nc2nn([C@H]3CCCC[C@@H]3C#N)c3cc[nH]c(=O)c23)ccc1C(C(C)C)n1ccnn1 (single isomer, unassigned) [Example 15-37, (1S,2S)-2-[3-({3-methyl-4-[(1S or 1R)-2-methyl-1-(1H-1,2,3-triazol-1-yl)propyl]phenyl}amino)-4-oxo-4,5-dihydro-1H-pyrazolo[4,3-c]pyridin-1-yl]cyclohexanecarbonitrile] | 0.066 nM | 0.25 nM
CN(C)[C@@H]1CC[C@H](n2nc(Nc3ccc(Cl)cc3)c3c(=O)[nH]ccc32)[C@@H](C#N)C1 [Example 5-15, (1S,2S,5R)-2-(3-((4-chlorophenyl)amino)-4-oxo-4,5-dihydro-1H-pyrazolo[4,3-c]pyridin-1-yl)-5-(dimethylamino)cyclohexanecarbonitrile] | 0.28 nM | 11 nM
Cc1cc(Nc2nn([C@H]3CCCC[C@@H]3C#N)c3cc[nH]c(=O)c23)ccc1C(C(C)C)n1ccnn1 (single isomer, unassigned) [Example 15-38, (1S,2S)-2-[3-({3-methyl-4-[(1R or 1S)-2-methyl-1-(1H-1,2,3-triazol-1-yl)propyl]phenyl}amino)-4-oxo-4,5-dihydro-1H-pyrazolo[4,3-c]pyridin-1-yl]cyclohexanecarbonitrile] | 0.06 nM | 0.15 nM
N#C[C@H]1CCCC[C@@H]1n1nc(Nc2ccc3c(c2)CNC3C(F)F)c2c(=O)[nH]ccc21 (single isomer, unassigned) [Example 15-27, (1S,2S)-2-(3-{[(1R or 1S)-1-(difluoromethyl)-2,3-dihydro-1H-isoindol-5-yl]amino}-4-oxo-4,5-dihydro-1H-pyrazolo[4,3-c]pyridin-1-yl)cyclohexanecarbonitrile] | 0.22 nM | 0.72 nM
N#C[C@H]1CCCC[C@@H]1n1nc(Nc2ccc(-c3cnco3)cc2)c2c(=O)[nH]ccc21 [Example 15-8, (1S,2S)-2-(3-{[4-(1,3-oxazol-5-yl)phenyl]amino}-4-oxo-4,5-dihydro-1H-pyrazolo[4,3-c]pyridin-1-yl)cyclohexanecarbonitrile] | 0.14 nM | 0.27 nM
CC(C)(C)S(=O)(=O)c1ccc(Nc2nn([C@H]3CCC[C@@H]3C#N)c3cc[nH]c(=O)c23)cc1 [Example 3-106, (1S,2S)-2-(3-{[4-(tert-butylsulfonyl)phenyl]amino}-4-oxo-4,5-dihydro-1H-pyrazolo[4,3-c]pyridin-1-yl)cyclopentanecarbonitrile] | 0.12 nM | 0.36 nM
CC(O)(CO)c1cccc(Nc2nn([C@H]3CCCC[C@@H]3C#N)c3cc[nH]c(=O)c23)c1 (stereo partly drawn) [Example 11-1, (1S,2S)-2-(3-((3-(1,2-Dihydroxypropan-2-yl)phenyl)amino)-4-oxo-4,5-dihydro-1H-pyrazolo[4,3-c]pyridin-1-yl)cyclohexanecarbonitrile] | 2.5 nM | 4 nM
N#C[C@@H]1CCCC[C@H]1n1nc(Nc2ccc(CS(=O)(=O)N3CCCC3)cc2)c2c(=O)[nH]ccc21 [Example 3-3, (1R,2R)-2-(4-oxo-3-((4-((pyrrolidin-1-ylsulfonyl)methyl)phenyl)amino)-4,5-dihydro-1H-pyrazolo[4,3-c]pyridin-1-yl)cyclohexanecarbonitrile] | 6.1 nM | 21 nM
N#C[C@H]1CCCC[C@@H]1n1nc(Nc2cccc(Cn3cnnc3)c2)c2c(=O)[nH]ccc21 [Example 3-51, (1S,2S)-2-(4-oxo-3-{[3-(4H-1,2,4-triazol-4-ylmethyl)phenyl]amino}-4,5-dihydro-1H-pyrazolo[4,3-c]pyridin-1-yl)cyclohexanecarbonitrile] | 0.25 nM | 1.2 nM
N#C[C@@H]1CCCC[C@H]1n1nc(Nc2cccc(CNC(=O)c3ncccn3)c2)c2c(=O)[nH]ccc21 [Example 3-14, N-[3-({1-[(1R,2R)-2-cyanocyclohexyl]-4-oxo-4,5-dihydro-1H-pyrazolo[4,3-c]pyridin-3-yl}amino)benzyl]pyrimidine-2-carboxamide] | 38 nM | 68 nM
CC(C)C(c1ccc(Nc2nn([C@H]3CCCC[C@@H]3C#N)c3cc[nH]c(=O)c23)cc1)n1cc(C(=O)OC(C)(C)C)nn1 (single isomer, unassigned) [Example 15-58, tert-butyl 1-{(1R or 1S)-1-[4-({1-[(1S,2S)-2-cyanocyclohexyl]-4-oxo-4,5-dihydro-1H-pyrazolo[4,3-c]pyridin-3-yl}amino)phenyl]-2-methylpropyl}-1H-1,2,3-triazole-4-carboxylate] | 1.8 nM | 3.1 nM
CC1(C)Cc2cc(Nc3nn([C@H]4CCCC[C@@H]4C#N)c4cc[nH]c(=O)c34)ccc2S1(=O)=O [Example 21-1, (1S,2S)-2-(3-((2,2-Dimethyl-1,1-dioxido-2,3-dihydrobenzo[b]thiophen-5-yl)amino)-4-oxo-4,5-dihydro-1H-pyrazolo[4,3-c]pyridin-1-yl)cyclohexanecarbonitrile] | 0.056 nM | 0.28 nM
N#CCC1(n2nc(Nc3ccc(C(N)C(F)F)cc3)c3c(=O)[nH]ccc32)CCCCC1 (single isomer, unassigned) [Example 9-2, (R or S)-2-(1-(3-(4-(1-Amino(-2,2-difluoroethyl)phenylamino)-4-oxo-4,5-dihydro-1H-pyrazolo[4,3-c]pyridin-1-yl)cyclohexyl)acetonitrile] | 0.22 nM | 0.51 nM
N#C[C@H]1CCCC[C@@H]1n1nc(Nc2ccc3c(c2)CN(C2CCSCC2)C3=O)c2c(=O)[nH]ccc21 [Example 15-60, (1S,2S)-2-(4-oxo-3-{[1-oxo-2-(tetrahydro-2H-thiopyran-4-yl)-2,3-dihydro-1H-isoindol-5-yl]amino}-4,5-dihydro-1H-pyrazolo[4,3-c]pyridin-1-yl)cyclohexanecarbonitrile] | 0.11 nM | 0.51 nM
CC(C)(c1ccc(Nc2nn([C@H]3CCCC[C@@H]3C#N)c3cc[nH]c(=O)c23)cc1)n1nccn1 [Example 15-29, (1S,2S)-2-[3-({4-[1-methyl-1-(2H-1,2,3-triazol-2-yl)ethyl]phenyl}amino)-4-oxo-4,5-dihydro-1H-pyrazolo[4,3-c]pyridin-1-yl]cyclohexanecarbonitrile] | 0.14 nM | 0.24 nM
CC(O)(c1ccc(Nc2nn([C@H]3CCCC[C@@H]3C#N)c3cc[nH]c(=O)c23)cc1)C(F)(F)F (single isomer, unassigned) [Example 15-12, (1S,2S)-2-[4-oxo-3-({4-[(1R or 1S)-2,2,2-trifluoro-1-hydroxy-1-methylethyl]phenyl}amino)-4,5-dihydro-1H-pyrazolo[4,3-c]pyridin-1-yl]cyclohexanecarbonitrile] | 0.14 nM | 0.84 nM
